The test has as its target T1, Recombinant truncated stromelysin (human sequence) (Homo sapiens, UniProt P08254).
T1 construct: made in house; host or cells: E. coli
In words: Determination of stromelysin inhibition (cleavage of thiopeptide ester substrate, DTNB colour read at 405 nm). It is filed as biochemical. To be noted: substrate Ac-Pro-Leu-Gly-[2-mercapto-4-methylpentanoyl]-Leu-Gly-OEt; 30 minute assay at ambient temperature; 50 mM MES/NaOH pH 6.5 with 10 mM CaCl2 and 0.2% Pluronic F-68. The protocol:
The efficacy of the compounds of this invention as matrix metalloproteinase inhibitors was determined by measuring the inhibition of stromelysin. The inhibition of stromelysin by the compounds of this invention was determined as follows: Recombinant truncated stromelysin (human sequence) produced in E. coli was prepared by expression and purification of the protein as described by Ye et al. (Biochemistry, 1992, 31, 11231-11235, which is incorporated herein by reference). The enzyme was assayed by its cleavage of the thiopeptide ester substrate Ac-Pro-Leu-Gly-[2-mercapto-4-methylpentanoyl]-Leu-Gly-OEt as described by Weingarten and Feder (Anal. Biochem., 1985, 147, 437-440 (1985), which is incorporated herein by reference) as a substrate of vertebrate collagenase. The reported conditions were modified to allow assays to be carried out in a microtiter plate. Upon hydrolysis of the thioester bond, the released thiol group reacted rapidly with 5,5'-dithio-bis(2-nitrobenzoic acid) (DTNB) to produce a yellow color which was measured by a microtiter plate reader set at 405 nm. The rates of cleavage of the substrate by stromelysin in the presence or absence of inhibitors were measured in a 30 minute assay at ambient temperature. Solutions of the compounds in DMSO were prepared, and these were diluted at various concentrations into the assay buffer (50 mM MES/NaOH pH 6.5 with 10 mM CaCl2 and 0.2% Pluronic F-68), which was also used for dilution of the enzyme and substrate. The potency of the compounds [IC50] was calculated from the inhibition/inhibitor concentration data.
T1 sequence (P08254 100-272 limits assumed): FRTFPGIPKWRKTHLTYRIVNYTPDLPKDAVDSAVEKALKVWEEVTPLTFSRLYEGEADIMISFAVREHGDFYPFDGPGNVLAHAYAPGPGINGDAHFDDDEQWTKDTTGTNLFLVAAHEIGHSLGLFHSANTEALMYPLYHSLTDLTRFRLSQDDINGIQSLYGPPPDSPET
On to `N#Cc1ccc(-c2ccc(OCC(COc3ccccc3)N(O)C=O)cc2)cc1` (racemic) [Example 1, (±)-N-[1-[[(4'-cyano-[1,1'-biphenyl]-4-yl)oxy]methyl]-2-phenoxyethyl]-N-hydroxyformamide], for which the IC50 is 0.13 µM. As for `N#Cc1ccc(-c2ccc(OCC(CSc3ccccc3)N(O)C=O)cc2)cc1` (racemic) [Example 2, (±)-N-[1-[[(4'-cyano-[1,1'-biphenyl]-4-yl)oxy]methyl]-2-(phenylthio)ethyl]-N-hydroxyformamide], the IC50 was 0.036 µM. As for `N#Cc1ccc(-c2ccc(OCC(CN3C(=O)c4ccccc4C3=O)N(O)C=O)cc2)cc1` (racemic) [Example 3, (±)-N-[1-[[(4'-cyano-[1,1'-biphenyl]-4-yl)oxy]methyl]-2-(2,3-dihydro-1,3-dioxo-1H-isoindol-2-yl)ethyl]-N-hydroxyformamide], the IC50 was found to be 0.021 µM. Turning to `CCCCC(COc1ccc(-c2cccc(CC#N)c2)cc1)N(O)C=O` (racemic) [Example 6, (±)-N-[1-[[[3'-(cyanomethyl)-[1,1'-biphenyl]-4-yl]oxy]methyl]pentyl]-N-hydroxyformamide], the IC50 was 0.03 µM. In the case of `CCC(C)C(COc1ccc(-c2ccc(C#N)cc2)cc1)N(O)C=O` (racemic) [Example 8, (± )-N-[1-[[(4'-cyano-[1,1'-biphenyl]-4-yl)oxy]methyl]-2-methylbutyl]-N-hydroxyformamide], the IC50 came out at 0.17 µM. Take `CCCCC(COc1ccc(-c2ccc(C#N)cc2)cc1)N(O)C=O` (racemic) [Example 9, (±)-N-[1-[[(4'-cyano-[1,1'-biphenyl]-4-yl)oxy]methyl]pentyl]-N-hydroxyformamide]: the IC50 was determined as 0.1 µM. For `Cc1ccc(CC(COc2ccc(-c3ccc(C#N)cc3)cc2)N(O)C=O)cc1` (racemic) [Example 10, (±)-N-[1-[[(4'-cyano-[1,1'-biphenyl]-4-yl)oxy]methyl]-2-(4-methylphenyl)ethyl]-N-hydroxyformamide] the value was 1.5 µM; for `N#Cc1ccc(-c2ccc(OCC(c3ccc(F)cc3)N(O)C=O)cc2)cc1` (racemic) [Example 11, (±)-N-[2-[(4'-cyano-[1,1'-biphenyl]-4-yl)oxy]-1-(4-fluorophenyl)ethyl)-N-hydroxyformamide], 0.3 µM. In the case of `N#Cc1ccc(-c2ccc(OCC(Cc3ccc(F)cc3)N(O)C=O)cc2)cc1` (racemic) [Example 12, (±)-N-[1-[[(4'-cyano-[1,1'-biphenyl]-4-yl)oxy]methyl]-2-(4-fluorophenyl)ethyl]-N-hydroxyformamide] it was 0.18 µM. With `CC(COc1ccc(-c2ccc(C#N)cc2)cc1)N(O)C=O` (racemic) [Example 13, (±)-N-[1-[[(4'-cyano-[1,1'-biphenyl]-4-yl)oxy]methyl]ethyl]-N-hydroxyformamide], the IC50 came out at 0.31 µM.

On to `CC(=O)N(O)CCOc1ccc(-c2ccc(C#N)cc2)cc1` [Example 14, N-[2-[(4'-cyano-[1,1'-biphenyl]-4-yl)oxy]ethyl]-N-hydroxyacetamide], for which the IC50 came out at 4 µM.

On to `N#Cc1ccc(-c2ccc(OCCN(O)C=O)cc2)cc1` [Example 15], for which the IC50 turned out to be 0.62 µM.

As usually defined, the IC50 is the midpoint of a concentration-inhibition curve.
